Laboratory results: PubChem BioAssay (NCI)
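Following 48 hours of exposure in 96-well plates, responses at five concentrations were used to interpolate endpoints linearly. TGI denotes the concentration required for complete inhibition of growth.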

Columns and labels:
Experiment in all cases: growth of human tumour cells (NCI), 48 h
[1] = tested on: SNB-19 CNS
[2] = tested on: NCI-H522 lung
[3] = tested on: UACC-62 melanoma
[4] = tested on: SK-MEL-5 melanoma
[5] = tested on: A498 renal
[6] = tested on: OVCAR-4 ovarian
[7] = tested on: HOP-92 NSCLC
[8] = tested on: M14 melanoma
[9] = tested on: RPMI-8226 leukemia
[10] = tested on: U251 CNS
[11] = tested on: MDA-MB-231 breast
[12] = tested on: MDA-N
[13] = tested on: SK-MEL-28 melanoma
[14] = tested on: IGROV1 ovarian
[15] = tested on: DU-145 prostate
[16] = tested on: CCRF-CEM leukemia
[17] = tested on: PC-3 prostate
[18] = tested on: MDA-MB-435
[19] = tested on: T-47D breast
[20] = tested on: OVCAR-8 ovarian
[21] = tested on: KM12 colon
[22] = tested on: TK-10 renal
[23] = tested on: EKVX NSCLC
[24] = tested on: NCI-H226 lung
[25] = tested on: HT29 colon
[26] = tested on: ACHN renal
[27] = tested on: OVCAR-5 ovarian
[28] = tested on: SNB-75 CNS
[29] = tested on: NCI-H460 lung
[30] = tested on: SK-MEL-2 melanoma
[31] = tested on: SF-268 CNS
[32] = tested on: SF-295 CNS
[33] = tested on: RXF 393 renal
[34] = tested on: SR leukemia
[35] = tested on: UACC-257 melanoma
[36] = tested on: SF-539 CNS
[37] = tested on: SN12C renal
[38] = tested on: A549 NSCLC
[39] = tested on: NCI/ADR-RES ovarian
[40] = tested on: SW-620 colon
[41] = tested on: NCI-H23 lung
[42] = tested on: CAKI-1 renal
[43] = tested on: BT-549 breast
[44] = tested on: MALME-3M melanoma
[45] = tested on: HCT-116 colon
[46] = tested on: HL-60(TB) leukemia
[47] = tested on: OVCAR-3 ovarian
[48] = tested on: 786-0 renal
[49] = tested on: HS 578T breast
[50] = tested on: K-562 leukemia
[51] = tested on: HCT-15 colon
[52] = tested on: SK-OV-3 ovarian
[53] = tested on: MCF7 breast
[54] = tested on: HOP-62 NSCLC
[55] = tested on: UO-31 renal
[56] = tested on: COLO 205 colon
[57] = tested on: LOX IMVI melanoma
[58] = tested on: MOLT-4 leukemia
[59] = tested on: HCC-2998 colon

CC(C)N(Cc1ccccc1)S(=O)(=O)c1n[nH]c(C(C)(C)C)n1
TGI [1]: > 100 µM
TGI [2]: > 100 µM
TGI [3]: > 100 µM
TGI [4]: > 100 µM
TGI [5]: > 100 µM
TGI [6]: > 100 µM
TGI [7]: > 100 µM
TGI [8]: > 100 µM
TGI [9]: > 100 µM
TGI [10]: > 100 µM
TGI [11]: > 100 µM
TGI [12]: > 100 µM
TGI [13]: > 100 µM
TGI [14]: > 100 µM
TGI [15]: > 100 µM
TGI [16]: > 100 µM
TGI [17]: > 100 µM
TGI [18]: > 100 µM
TGI [19]: > 100 µM
TGI [20]: > 100 µM
TGI [21]: > 100 µM
TGI [22]: > 100 µM
TGI [23]: > 100 µM
TGI [24]: > 100 µM
TGI [25]: > 100 µM
TGI [26]: > 100 µM
TGI [27]: > 100 µM
TGI [28]: > 100 µM
TGI [29]: > 100 µM
TGI [30]: > 100 µM
TGI [31]: > 100 µM
TGI [32]: > 100 µM
TGI [33]: > 100 µM
TGI [34]: > 100 µM
TGI [35]: > 100 µM
TGI [36]: > 100 µM
TGI [37]: > 100 µM
TGI [38]: > 100 µM
TGI [39]: > 100 µM
TGI [40]: > 100 µM
TGI [41]: > 100 µM
TGI [42]: > 100 µM
TGI [43]: > 100 µM
TGI [44]: > 100 µM
TGI [45]: > 100 µM
TGI [46]: > 100 µM
TGI [47]: > 100 µM
TGI [48]: > 100 µM
TGI [49]: > 100 µM
TGI [50]: > 100 µM
TGI [51]: > 100 µM
TGI [52]: > 100 µM
TGI [53]: > 100 µM
TGI [54]: > 100 µM
TGI [55]: > 100 µM
TGI [56]: > 100 µM
TGI [57]: > 100 µM

C=Cc1cnc([N+](=O)[O-])n1C
TGI [1]: > 100 µM
TGI [4]: > 100 µM
TGI [5]: 98.7 µM
TGI [7]: > 100 µM
TGI [8]: > 100 µM
TGI [9]: > 100 µM
TGI [10]: > 100 µM
TGI [11]: > 100 µM
TGI [12]: > 100 µM
TGI [13]: > 100 µM
TGI [15]: > 100 µM
TGI [16]: > 100 µM
TGI [17]: > 100 µM
TGI [18]: > 100 µM
TGI [19]: > 100 µM
TGI [20]: > 100 µM
TGI [21]: > 100 µM
TGI [22]: > 100 µM
TGI [23]: > 100 µM
TGI [24]: > 100 µM
TGI [25]: > 100 µM
TGI [26]: > 100 µM
TGI [27]: > 100 µM
TGI [29]: > 100 µM
TGI [31]: > 100 µM
TGI [32]: > 100 µM
TGI [58]: > 100 µM
TGI [34]: 60.5 µM
TGI [35]: > 100 µM
TGI [36]: > 100 µM
TGI [37]: > 100 µM
TGI [38]: > 100 µM
TGI [39]: > 100 µM
TGI [40]: > 100 µM
TGI [41]: > 100 µM
TGI [59]: > 100 µM
TGI [42]: > 100 µM
TGI [43]: > 100 µM
TGI [44]: > 100 µM
TGI [45]: > 100 µM
TGI [46]: > 100 µM
TGI [47]: > 100 µM
TGI [48]: > 100 µM
TGI [49]: 99.9 µM
TGI [51]: > 100 µM
TGI [52]: > 100 µM
TGI [53]: > 100 µM
TGI [54]: > 100 µM
TGI [55]: > 100 µM
TGI [56]: > 100 µM
TGI [57]: > 100 µM
